Drawing on patent US11612604B2, “Methods of treating cancer with PLK4 inhibitors” (LUDWIG INSTITUTE FOR CANCER RESEARCH LTD, priority 2017, dated 2023), this text covers IC50 for 51 compounds.

Molecules are shown by their SMILES.

For the assay, the target named is T1, PLK4 (Homo sapiens, UniProt O00444).
T1 sequence (O00444 1-970): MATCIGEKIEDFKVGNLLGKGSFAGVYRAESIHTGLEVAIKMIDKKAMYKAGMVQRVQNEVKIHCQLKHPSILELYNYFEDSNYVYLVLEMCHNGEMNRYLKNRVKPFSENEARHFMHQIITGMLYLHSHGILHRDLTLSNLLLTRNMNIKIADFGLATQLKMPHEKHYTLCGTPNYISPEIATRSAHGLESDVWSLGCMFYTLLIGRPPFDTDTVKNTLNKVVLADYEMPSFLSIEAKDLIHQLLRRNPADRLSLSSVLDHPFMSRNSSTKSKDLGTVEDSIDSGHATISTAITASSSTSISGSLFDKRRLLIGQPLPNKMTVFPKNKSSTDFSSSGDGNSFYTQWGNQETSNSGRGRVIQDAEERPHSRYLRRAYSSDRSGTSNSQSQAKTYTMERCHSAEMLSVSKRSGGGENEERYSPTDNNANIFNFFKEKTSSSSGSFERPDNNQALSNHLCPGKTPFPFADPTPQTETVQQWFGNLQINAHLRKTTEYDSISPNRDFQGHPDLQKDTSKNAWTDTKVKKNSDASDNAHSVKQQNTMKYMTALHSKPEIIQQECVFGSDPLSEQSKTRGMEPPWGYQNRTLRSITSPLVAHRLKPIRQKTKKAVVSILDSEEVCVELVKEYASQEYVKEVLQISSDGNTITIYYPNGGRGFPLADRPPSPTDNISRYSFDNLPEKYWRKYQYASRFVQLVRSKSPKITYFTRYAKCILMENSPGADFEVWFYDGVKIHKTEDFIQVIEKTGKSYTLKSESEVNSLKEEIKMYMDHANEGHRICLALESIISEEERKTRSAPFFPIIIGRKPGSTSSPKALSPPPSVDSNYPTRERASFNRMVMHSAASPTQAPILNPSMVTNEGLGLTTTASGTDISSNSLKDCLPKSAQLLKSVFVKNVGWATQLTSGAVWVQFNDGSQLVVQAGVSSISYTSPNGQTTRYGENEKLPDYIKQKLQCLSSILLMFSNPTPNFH
As to the kind of experiment: Activity (IC50) of the Table 1 compounds as PLK4 inhibitors. It counts as biochemical. Particulars: Table 1, IC50 class.
Take `COc1c(Nc2cc(C)[nH]n2)nc(Sc2ccc(NC(=O)C3CCCC3)cc2)nc1N(C)C`: the IC50 – broadly, the midpoint of a concentration-inhibition curve – was < 100 nM.

As for `COCCNc1nc(Sc2ccc(NC(=O)C3CCCC3)cc2)nc(Nc2cc(C)[nH]n2)c1OC`, the IC50 was < 100 nM.

`COc1c(Nc2cc(C)[nH]n2)nc(Sc2ccc(S(=O)(=O)Cc3ccccc3Cl)cc2)nc1N1CCN(CCN(C)C)CC1`: the IC50 was < 100 nM.

As to `COc1c(Nc2cc(C)[nH]n2)nc(Sc2ccc(S(=O)(=O)Cc3cccc(Cl)c3)cc2)nc1N1CCN(CCN(C)C)CC1`, the IC50 was < 100 nM.

As to `COc1c(Nc2cc(C)[nH]n2)nc(Sc2ccc(S(=O)(=O)Cc3ccncc3)cc2)nc1N1CCN(CCN(C)C)CC1`, the IC50 is < 100 nM.

As to `COc1c(Nc2cc(C)[nH]n2)nc(Sc2ccc(S(=O)(=O)Cc3ccccc3)cc2)nc1N1CCC(CCN(C)C)CC1`, the IC50 was < 100 nM.

For the compound `COc1c(Nc2cc(C)[nH]n2)nc(Sc2ccc(S(=O)(=O)Cc3ccccc3)cc2)nc1N1CCN(C)CC1`, the IC50 was < 100 nM.

On to `CCS(=O)(=O)c1ccc(Sc2nc(Nc3cc(C)[nH]n3)c(OC)c(N3CCN(C)CC3)n2)cc1`, for which the IC50 is < 100 nM.

With `COc1c(Nc2cc(C)[nH]n2)nc(Sc2ccc(S(=O)(=O)Cc3cccnc3)cc2)nc1N1CCN(CCN(C)C)CC1`, the IC50 was < 100 nM.

For `COc1c(Nc2cc(C)[nH]n2)nc(Sc2ccc(S(=O)(=O)Cc3ccc(Cl)cc3)cc2)nc1N1CCN(CCN(C)C)CC1`, the IC50 is < 100 nM.

Consider `COc1c(Nc2cc(C)[nH]n2)nc(Sc2ccc(S(=O)(=O)Cc3ccccc3)cc2)nc1N1CCN(CCN2C3CCCC2CCC3)CC1`, for which the IC50 was < 100 nM.

On to `COc1c(Nc2cc(C)[nH]n2)nc(Sc2ccc(S(=O)(=O)Cc3cccs3)cc2)nc1N1CCN(CCN(C)C)CC1`, for which the half-maximal inhibitory concentration (IC50) is < 100 nM.

Turning to `CCS(=O)(=O)c1ccc(Sc2nc(Nc3cc(C)[nH]n3)c(OC)c(N3CCNCC3)n2)cc1`, the IC50 is < 100 nM.

On to `COc1c(Nc2cc(C)[nH]n2)nc(Sc2ccc(S(=O)(=O)Cc3nccs3)cc2)nc1N1CCN(CCN(C)C)CC1`, for which the IC50 was < 100 nM.

Take `CCS(=O)(=O)c1ccc(Sc2nc(Nc3cc(C)[nH]n3)c(OC)c(C3CCN(CCN(C)C)CC3)n2)cc1`: the IC50 is < 100 nM.

Take `COc1c(Nc2cc(C)[nH]n2)nc(Sc2ccc(S(=O)(=O)Cc3ccccc3)cc2)nc1C1CCN(CCN(C)C)CC1`: the IC50 was < 100 nM.

On to `CCS(=O)(=O)c1ccc(Sc2nc(Nc3cc(C)[nH]n3)c(OC)c(N3CCC(CCN4C5CCCC4CCC5)CC3)n2)cc1`, for which the IC50 was < 100 nM.

On to `COc1c(Nc2cc(C)[nH]n2)nc(Sc2ccc(S(=O)(=O)Cc3ncc[nH]3)cc2)nc1N1CCN(CCN(C)C)CC1`, for which the IC50 was < 100 nM.

In the case of `CCS(=O)(=O)c1ccc(Sc2nc(C)c(OC)c(Nc3cc(C)[nH]n3)n2)cc1`, the half-inhibitory concentration (IC50) is < 100 nM.

Turning to `COc1c(C)nc(Sc2ccc(S(=O)(=O)Cc3ccccc3)cc2)nc1Nc1cc(C)[nH]n1`, the IC50 was < 100 nM.

`COc1c(Nc2cc(C)[nH]n2)nc(Sc2ccc(S(=O)(=O)CCN(C)C)cc2)nc1N1CCN(CCN(C)C)CC1`: the concentration for half-maximal inhibition (IC50) was < 100 nM.

For the compound `COc1c(Nc2cc(C)[nH]n2)nc(Sc2ccc(S(=O)(=O)c3ccccc3)cc2)nc1N1CCN(CCN(C)C)CC1`, the IC50 was < 100 nM.

In the case of `COc1c(Nc2cc(C)[nH]n2)nc(Sc2ccc(S(=O)(=O)Cc3ncco3)cc2)nc1N1CCN(CCN(C)C)CC1`, the IC50 was < 100 nM.

For the compound `CCOc1c(Nc2cc(C)[nH]n2)nc(Sc2ccc(S(=O)(=O)CC)cc2)nc1N1CCN(CCN(C)C)CC1`, the IC50 was < 100 nM.

For `CCOc1c(Nc2cc(C)[nH]n2)nc(Sc2ccc(S(=O)(=O)Cc3ccccc3)cc2)nc1N1CCN(CCN(C)C)CC1`, the IC50 was < 100 nM.

`COc1c(Nc2cc(C)[nH]n2)nc(Sc2ccc(S(=O)(=O)Cc3ccccc3)cc2)nc1N1CCOCC1`: the IC50 is < 100 nM.

For `COc1c(Nc2cc(C)[nH]n2)nc(Sc2ccc(S(=O)(=O)Cc3ccccc3)cc2)nc1N(C)C`, the half-inhibitory concentration (IC50) is < 100 nM.

As to `COc1c(Nc2cc(C)[nH]n2)nc(Sc2ccc(S(=O)(=O)Cc3ccccc3)cc2)nc1N1CCCCC1`, the IC50 is < 100 nM.

Turning to `COc1c(Nc2cc(C)[nH]n2)nc(Sc2ccc(S(=O)(=O)Cc3ccccc3)cc2)nc1N1CCN(CCN2CCN(C)CC2)CC1`, the IC50 is < 100 nM.

Consider `COc1c(Nc2cc(C)[nH]n2)nc(Sc2ccc(S(=O)(=O)Cc3ccccc3)cc2)nc1N1CCN(CCN2C3CCCC2CC3)CC1`, for which the IC50 was < 100 nM.

As to `Cc1cc(Nc2nc(Sc3ccc(S(=O)(=O)Cc4ccccc4)cc3)nc(N3CCN(CCN(C)C)CC3)c2C)n[nH]1`, the IC50 is < 100 nM.

In the case of `Cc1cc(Nc2cc(N3CCN(CCN(C)C)CC3)nc(Sc3ccc(S(=O)(=O)Cc4ccccc4)cc3)n2)n[nH]1`, the IC50 is < 100 nM.

In the case of `COc1c(Nc2cc[nH]n2)nc(Sc2ccc(S(=O)(=O)Cc3ccccc3)cc2)nc1N1CCN(CCN(C)C)CC1`, the half-maximal inhibitory concentration (IC50) was < 100 nM.

Turning to `CCS(=O)(=O)c1ccc(Sc2nc(Nc3cc(C)[nH]n3)c(OC)c(N3CCCCC3)n2)cc1`, the IC50 is < 100 nM.

In the case of `CCS(=O)(=O)c1ccc(Sc2nc(Nc3cc(C)[nH]n3)c(OC)c(N3CCOCC3)n2)cc1`, the IC50 is < 100 nM.

Consider `COc1c(Nc2cc(C)[nH]n2)nc(Sc2ccc(S(=O)(=O)Cc3cccc([N+](=O)[O-])c3)cc2)nc1N1CCN(CCN(C)C)CC1`, for which the IC50 is < 100 nM.

As for `COc1c(Nc2cc(C)[nH]n2)nc(Sc2ccc(S(=O)(=O)Cc3ccc([N+](=O)[O-])cc3)cc2)nc1N1CCN(CCN(C)C)CC1`, the IC50 was < 100 nM.

For the compound `CCN(CC)c1nc(Sc2ccc(S(=O)(=O)Cc3ccccc3)cc2)nc(Nc2cc(C)[nH]n2)c1OC`, the IC50 was < 100 nM.

Take `CCN(CC)c1nc(Sc2ccc(S(=O)(=O)CC)cc2)nc(Nc2cc(C)[nH]n2)c1OC`: the IC50 is < 100 nM.

Regarding `CCOc1c(Nc2cc(C)[nH]n2)nc(Sc2ccc(S(=O)(=O)Cc3ccccc3)cc2)nc1N1CCNCC1`, the IC50 was < 100 nM.

Regarding `CCOc1c(Nc2cc(C)[nH]n2)nc(Sc2ccc(S(=O)(=O)CC)cc2)nc1N1CCNCC1`, the IC50 is < 100 nM.

Take `COc1c(Nc2cc(C)[nH]n2)nc(Sc2ccc(S(=O)(=O)Cc3ccc(F)cc3F)cc2)nc1N1CCN(CCN(C)C)CC1`: the IC50 was < 100 nM.

With `COc1c(Nc2cc(C)[nH]n2)nc(Sc2ccc(S(=O)(=O)Cc3ccccc3F)cc2)nc1N1CCN(CCN(C)C)CC1`, the IC50 is < 100 nM.

Regarding `COc1c(Nc2cc(C)[nH]n2)nc(Sc2ccc(S(=O)(=O)Cc3ccccc3)cc2)nc1N1CCN(CCN(C)c2ccccc2)CC1`, the IC50 was < 100 nM.

Turning to `CCCOc1c(Nc2cc(C)[nH]n2)nc(Sc2ccc(S(=O)(=O)Cc3ccccc3)cc2)nc1N1CCN(CCN(C)C)CC1`, the IC50 is < 100 nM.

Turning to `Cc1cc(Nc2nc(Sc3ccc(S(=O)(=O)Cc4ccccc4)cc3)nc(N3CCN(CCN(C)C)CC3)c2OC(C)C)n[nH]1`, the concentration for half-maximal inhibition (IC50) is < 100 nM.

With `COc1c(Nc2cc(C)[nH]n2)nc(Sc2ccc(S(=O)(=O)Cc3cccc(O)c3)cc2)nc1N1CCN(CCN(C)C)CC1`, the IC50 was < 100 nM.

`COc1c(Nc2cc(C)[nH]n2)nc(Sc2ccc(S(=O)(=O)Cc3cccc(OCc4ccccc4)c3)cc2)nc1N1CCN(CCN(C)C)CC1`: the IC50 was < 100 nM.

On to `CCOc1c(Nc2cc(C)[nH]n2)nc(Sc2ccc(S(=O)(=O)Cc3ccccc3)cc2)nc1N1CCN(CCN2C3CCCC2CC3)CC1`, for which the IC50 is < 100 nM.

In the case of `CCOc1c(Nc2cc(C)[nH]n2)nc(Sc2ccc(S(=O)(=O)CC)cc2)nc1N1CCC(CCN(C)C)CC1`, the IC50 is < 100 nM.

For the compound `COc1c(Nc2cc(C)[nH]n2)nc(Sc2ccc(S(=O)(=O)Cc3cc(F)ccc3F)cc2)nc1N1CCN(CCN(C)C)CC1`, the IC50 was < 100 nM.
